Assay [1] relates to COS-I cells. As to the kind of experiment: FRAP of Src-GFP on macropinosomes. It is filed as cell-based. Particulars: cycloheximide-treated COS-I cells, pretreated 10 min with 1 mM NEM or 0.5% tannic acid. As for the experimental part: A-D: FRAP analysis of Src-GFP was performed in COS-I cells treated with cycloheximide. Cells expressing Src-GFP were pretreated with nothing (control) (A), I mM NEM (B), or 0.5% tannic acid (C) for 10 min. Enclosed areas (yellow circles) were photobleached and cells were monitored at 5-sec (A and C) or 60-sec intervals (B) for 10 min. Mean fluorescence intensities on macropinosomes were measured, and results are means±SD (control, n=4; NEM, n=3; Tannic acid, n=5). N, nucleus. Bars 5 μm. E: Equal amounts of lysates from S100 and P100 fractions of Src-GFP-expressing COS-I cells were analyzed by Western blotting with anti-Src, anti-cPLA2 (cytosol marker), and anti-desmoglein (plasma membrane marker) antibodies.
For live-cell imaging, cells cultured in 35-mm glass-based dishes were transiently transfected with plasmid DNA on the preceding day. Time-lapse monitoring was performed using a Fluoview FV5OO with a 40×1.00 oil objective. Images were obtained at low power laser (0.3-3.0% laser) using the 488 nm line of an argon laser. FRAP was performed as described (Kasahara et at., 2004). If necessary, COS-I cells were treated with 200 μg/ml cycloheximide (Sigma-Aldrich) for 2 h before images were obtained. […] Mean fluorescence intensities were quantitated using Fluoview Tiempo time course version 4.2 software. […]

In assay [2] the test system is 10T½ cells. The assay is described as follows: PMA-stimulated macropinocytosis (RITC-dextran-labeled macropinosomes). It is filed as cell-based, mouse. Particulars: 10T½ cells pretreated with 5 μM SU6656 for 30 min, then 200 nM PMA plus 1 mg/ml RITC-dextran for 20 min. As for the experimental part:
Data represent means±SD from three independent experiments. […] For comparison, the open bar is a reproduction of the data of Src-CFP in FIG. 2D. B: COS-1 cells transfected with c-Src plus Src(SH4-Unique)-GFP were cultured for 24 h and visualized with anti-Src (red) immunofluorescence and GFP fluorescence (green). C: 10T½ cells transfected with Src(SH4-Unique)-GFP (control) were treated with 200 nM PMA plus 1 mg/ml RITC-dextran for 15 min (1 PMA). D: 10T½ cells expressing Src(SH4-Unique)-GFP were stimulated with 200 nM PMA and cells were monitored at 30-sec intervals. The time of PMA addition is indicated as 0 sec (00′00″). E: 10T½ cells expressing Lyn(SH4-Unique)-GFP were treated with 200 nM PMA for 30 min and imaged by GFP fluorescence and Nomarski optics. F: 10T½ cells were pretreated with 5 μM SU6656 or none for 30 min and then stimulated with 200 nM PMA plus 1 mg/ml RITC-dextran for 20 min. […] Data represent means±SD from three independent experiments. […] Arrows indicate macropinosomes. N, nucleus. Bars, 10 μm. Macropinosomes wider than 2 μm labeled by c-Src or mutants were counted. All values were expressed as means±D from three independent experiments. Rhodamine B-isothiocyanate (RITC)-dextran (Mr 70,000), PMA, and wortmannin were from Sigma-Aldrich. SU6656 (Blake et al., 2000) was from Calbiochem. EGF was a kind gift of M. N. Fukuda.

The subject of assay [3] is HeLa cells. The assay is described as follows: EGF-induced macropinosome formation marked with Src(SH4-Unique)-GFP. It is filed as cell-based, human. Particulars: serum-starved HeLa cells expressing Src(SH4-Unique)-GFP, pretreated 30 min with 5 μM SU6656 or 200 nM wortmannin, then 50 ng/ml EGF for 15 min. Here is the method: During stimulation, cells were treated with 1 mg/ml RITC-dextran (B). White arrows indicate macropinosomes. […] The number of macropinosomes associated with Src(SH4-Unique)-GFP per 200 cells is shown. Data represent means±SD from three independent experiments. […] Equal amounts of lysates (input lysates) were analyzed by Western blotting with anti-pTyr and anti-actin antibodies. c-Src immunoprecipitates from lysates were analyzed by Western blotting with anti-Src[Y^418] and anti-Src antibodies. c-Src kinase activity was quantitated by measuring signal intensity using anti-Src[pY^418] antibody and normalized to the corresponding signal intensity detected by anti-Src. Results are expressed as mean values (fold) relative to the specific activity of c-Src in unstimulated control cells. […] The number of Src:(SH4-Unique)-GFP-labeled macropinosomes per 200 HeLa (left) or 100 A431 (right) cells was counted. Data represent means±SD from three independent experiments. […] F: Lysates were analyzed by Western blotting with anti-Src[Y^418], anti-Src, anti-pTyr, and anti-actin antibodies. […] White arrows indicate macropinosomes containing RITC-dextran. […] I: Co-localization of RITC-dextran with cathepsin D in macropinosomes was quantitated. […] Macropinosomes wider than 2 μm labeled by c-Src or mutants were counted. All values were expressed as means±D from three independent experiments. […]

Assay [4] has as its target T1, c-Src (Homo sapiens, UniProt P12931).
T1 construct: endogenous in cells; host or cells: HeLa (serum-starved, EGF-stimulated)
As to the kind of experiment: c-Src kinase activity in immunoprecipitates by Western blotting with anti-Src[pY418]. It is filed as cell-based. Particulars: serum-starved HeLa cells pretreated with 5 μM SU6656, EGF for 15 min.
Protocol: Results are expressed as mean values (fold) relative to the specific activity of c-Src in unstimulated control cells. […] F: Lysates were analyzed by Western blotting with anti-Src[Y^418], anti-Src, anti-pTyr, and anti-actin antibodies. […] Western blotting and immunoprecipitation were as described (Hirao et al., 1997; Mera et al., 1999; Yamaguchi et al., 2001; Kasahara et al., 2004). Cell lysates were prepared in Triton X-100 lysis buffer (50 mM HEPES, pH 7.4, 10% glycerol, 1% Triton X-100, 4 mM EDTA, 100 mM NaF, and 1 mM Na3VO4) containing protease inhibitors. For immunoprecipitation, lysates were incubated with protein G-Sepharose beads (Amersham) precoated with anti-Src (#327) overnight at 4° C.

In assay [5] the target is EGFR (Homo sapiens, UniProt P00533). As to the kind of experiment: EGFR activation by Western blotting of lysates with anti-pTyr. It is filed as cell-based. Particulars: serum-starved HeLa cells pretreated with 5 μM SU6656, EGF for 15 min. For orientation: In western blotting, separated proteins are transferred to a membrane and probed.
Protocol: F: Lysates were analyzed by Western blotting with anti-Src[Y^418], anti-Src, anti-pTyr, and anti-actin antibodies. […] Cell lysates were prepared in Triton X-100 lysis buffer (50 mM HEPES, pH 7.4, 10% glycerol, 1% Triton X-100, 4 mM EDTA, 100 mM NaF, and 1 mM Na3VO4) containing protease inhibitors.

The results in this text go back to patent US8343759B2, “Mammalian cell line expressing inducible c-Src” (National University Corporation Chiba University, priority 2007, dated 2013).

“Also recorded” adds a separate entry of the source.

T1 sequence (P12931 whole entry): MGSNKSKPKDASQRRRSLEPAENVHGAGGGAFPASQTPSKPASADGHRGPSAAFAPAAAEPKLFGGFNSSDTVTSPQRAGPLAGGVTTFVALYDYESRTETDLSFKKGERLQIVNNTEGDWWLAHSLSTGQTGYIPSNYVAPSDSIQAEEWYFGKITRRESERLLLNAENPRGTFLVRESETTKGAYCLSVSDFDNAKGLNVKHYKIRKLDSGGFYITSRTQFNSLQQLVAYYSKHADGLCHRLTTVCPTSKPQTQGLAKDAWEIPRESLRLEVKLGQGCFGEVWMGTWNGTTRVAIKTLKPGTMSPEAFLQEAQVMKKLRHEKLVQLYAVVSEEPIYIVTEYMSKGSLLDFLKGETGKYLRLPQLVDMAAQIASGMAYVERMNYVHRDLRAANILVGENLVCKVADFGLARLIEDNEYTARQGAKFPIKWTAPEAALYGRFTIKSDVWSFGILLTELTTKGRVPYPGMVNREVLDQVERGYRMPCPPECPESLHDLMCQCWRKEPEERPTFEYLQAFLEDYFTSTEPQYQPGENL
Chain of EGFR (P00533 25-1210): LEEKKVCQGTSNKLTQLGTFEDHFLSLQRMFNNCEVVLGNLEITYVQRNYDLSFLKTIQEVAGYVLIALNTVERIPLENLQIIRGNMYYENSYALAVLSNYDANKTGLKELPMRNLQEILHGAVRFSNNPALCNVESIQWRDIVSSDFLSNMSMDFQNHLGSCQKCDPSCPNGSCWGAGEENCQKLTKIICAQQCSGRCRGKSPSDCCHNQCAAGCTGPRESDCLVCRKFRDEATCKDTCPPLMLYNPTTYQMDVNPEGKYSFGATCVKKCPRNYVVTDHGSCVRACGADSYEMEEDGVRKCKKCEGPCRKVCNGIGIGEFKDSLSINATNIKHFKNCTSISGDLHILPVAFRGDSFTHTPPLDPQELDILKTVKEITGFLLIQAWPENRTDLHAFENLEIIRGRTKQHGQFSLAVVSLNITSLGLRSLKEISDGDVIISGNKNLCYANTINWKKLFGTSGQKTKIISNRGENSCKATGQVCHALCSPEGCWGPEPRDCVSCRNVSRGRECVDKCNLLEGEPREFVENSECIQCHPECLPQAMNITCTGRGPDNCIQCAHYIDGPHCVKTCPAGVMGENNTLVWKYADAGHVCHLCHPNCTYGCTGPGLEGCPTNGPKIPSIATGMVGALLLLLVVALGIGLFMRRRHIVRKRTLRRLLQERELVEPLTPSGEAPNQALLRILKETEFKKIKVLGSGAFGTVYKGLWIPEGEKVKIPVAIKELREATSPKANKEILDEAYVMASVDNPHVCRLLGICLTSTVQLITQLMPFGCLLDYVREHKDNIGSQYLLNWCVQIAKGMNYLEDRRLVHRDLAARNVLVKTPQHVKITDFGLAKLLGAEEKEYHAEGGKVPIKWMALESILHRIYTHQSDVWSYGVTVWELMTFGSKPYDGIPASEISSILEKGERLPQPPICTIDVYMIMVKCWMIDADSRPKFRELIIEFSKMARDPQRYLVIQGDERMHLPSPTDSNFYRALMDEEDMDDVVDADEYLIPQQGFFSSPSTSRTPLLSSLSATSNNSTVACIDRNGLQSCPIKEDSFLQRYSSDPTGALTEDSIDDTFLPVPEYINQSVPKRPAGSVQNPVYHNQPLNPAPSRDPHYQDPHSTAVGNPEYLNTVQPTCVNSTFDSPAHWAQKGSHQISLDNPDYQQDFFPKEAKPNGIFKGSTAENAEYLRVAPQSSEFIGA

For the compound `CCN1C(=O)C=CC1=O` [NEM, N-ethyl maleimide], the “inhibition of fluorescence recovery of Src-GFP on macropinosomes” value in assay [1] is listed as “inhibited”.

Take `CN(C)S(=O)(=O)c1ccc2c(c1)/C(=C/c1cc3c([nH]1)CCCC3)C(=O)N2` [SU6656]: in assay [2], the “inhibition of PMA-stimulated macropinocytosis” value is “not significant; also recorded: not inhibited; also recorded: did not inhibit”. Further, the “inhibition of EGF-induced macropinosome formation” value in assay [3] is reported as “partly inhibited”. Also, the “effect on c-Src activity” value in assay [4] is reported as “decreased c-Src activity below basal levels”. Moreover, the “effect on EGFR activation” value in assay [5] is listed as “without affecting”.

On to `O=C(OC[C@H]1O[C@@H](OC(=O)c2cc(O)c(O)c(OC(=O)c3cc(O)c(O)c(O)c3)c2)[C@H](OC(=O)c2cc(O)c(O)c(OC(=O)c3cc(O)c(O)c(O)c3)c2)[C@@H](OC(=O)c2cc(O)c(O)c(OC(=O)c3cc(O)c(O)c(O)c3)c2)[C@@H]1OC(=O)c1cc(O)c(O)c(OC(=O)c2cc(O)c(O)c(O)c2)c1)c1cc(O)c(O)c(OC(=O)c2cc(O)c(O)c(O)c2)c1` [tannic acid], for which the “inhibition of fluorescence recovery of Src-GFP on macropinosomes” value in assay [1] was “partly inhibited”.
